According to PubChem BioAssay (NCI):
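Briefly, cells in 96-well plates were exposed to five compound concentrations for 48 h, and endpoints were estimated by linear interpolation. TGI: concentration producing complete growth inhibition.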

Tests used:
Test in all cases: DTP human tumour cell line panel, 48 h
[1] = system: OVCAR-8 ovarian
[2] = system: NCI-H226 lung
[3] = system: KM12 colon
[4] = system: SF-539 CNS
[5] = system: HOP-92 NSCLC
[6] = system: OVCAR-5 ovarian
[7] = system: HL-60(TB) leukemia
[8] = system: UACC-62 melanoma
[9] = system: COLO 205 colon
[10] = system: HCC-2998 colon
[11] = system: SK-MEL-5 melanoma
[12] = system: A498 renal
[13] = system: SNB-78 CNS
[14] = system: DMS 273 small cell lung
[15] = system: NCI-H522 lung
[16] = system: DMS 114 small cell lung
[17] = system: K-562 leukemia
[18] = system: SF-268 CNS
[19] = system: HT29 colon
[20] = system: M19-MEL melanoma
[21] = system: NCI-H23 lung
[22] = system: MALME-3M melanoma
[23] = system: SF-295 CNS
[24] = system: UACC-257 melanoma
[25] = system: HCT-116 colon
[26] = system: KM20L2 colon
[27] = system: HCT-15 colon
[28] = system: SW-620 colon
[29] = system: HOP-18 NSCLC
[30] = system: SK-OV-3 ovarian
[31] = system: SNB-75 CNS
[32] = system: SK-MEL-2 melanoma
[33] = system: MOLT-4 leukemia
[34] = system: LOX IMVI melanoma
[35] = system: UO-31 renal
[36] = system: SNB-19 CNS
[37] = system: A549 NSCLC
[38] = system: RXF 393 renal
[39] = system: NCI-H460 lung
[40] = system: CCRF-CEM leukemia
[41] = system: IGROV1 ovarian
[42] = system: U251 CNS
[43] = system: 786-0 renal
[44] = system: SK-MEL-28 melanoma
[45] = system: HOP-62 NSCLC
[46] = system: CAKI-1 renal
[47] = system: OVCAR-3 ovarian
[48] = system: M14 melanoma
[49] = system: EKVX NSCLC
[50] = system: ACHN renal
[51] = system: OVCAR-4 ovarian
[52] = system: RPMI-8226 leukemia
[53] = system: DLD-1 colon
[54] = system: LXFL 529 NSCLC
[55] = system: TK-10 renal
[56] = system: SR leukemia
[57] = system: SN12C renal

Measured: TGI

CCCCCC(/C=C/[C@@H]1[C@H]2CC(=O)O[C@H]2C[C@H]1N1CCOCC1)OC1CCCO1 (stereo partly specified)
not listed: [56] | [57]
> 100 µM: all other assays above

CC1CCC2(OC1)OC1CC3C4CCC5CC(O)CCC5(C)C4CC(=O)OC3(C)C1C2C (stereo unspecified)
not listed: [2]
> 100 µM: all other assays above
